≈ marks a conversion by molar mass, not a printed value. Entries after “also recorded” stand apart in the source; their conditions may differ. Read-outs that look alike come from different tables or passages of the source. Numbered stars: 1 amine (or outer) side, 2 acyl side, 3 side chain; on linkers, the order of the positions; unused ones are H or OH. Bridge positions count the residues as written; N and C are the ends. Square brackets hold non-standard residues; d marks the D form. Peptide text beside a SMILES is read from it. X2 = CC(C)CCCCCCCCC[C@H](CC(=O)[*:1])O[*:2] Where only a bound is given, the exact number is not on record here.

A short description of series [1]: alamarBlue cytotoxicity assay, HEK293 cells. The class given is cell-based, human. The note with it: human; HEK293, 72 h exposure, alamarBlue; read-out: IC50 (cytotoxic level). As to the method:
(§1) To perform cytotoxicity assay, two batches of concentrated lichenysin were prepared from biomass grown on LB agar plates as described in section “Extraction of Lichenysin From Biomass Collected From Surface Growth on LB Agar and Skimmed Milk Agar.” Instead of using 150 mg biomass, lichenysin was extracted from 6.5 g of biomass from strain B4123, and dissolved in a final volume of 300 μl methanol. A small aliquot of 1 μl was taken to determine the concentration of the concentrated lichenysin extract via Reversed-Phase High-Performance Liquid Chromatography – Electro Spray Ionization Mass Spectrometry (RP-HPLC-ESI-MS). […]
(§2) The alamarBlue (Thermo Fischer Scientific) fluorometric assay was used to examine the cytotoxicity of lichenysin and surfactin toward two human cell lineages (HEK293, Caco-2) and ileum organoids from pigs. Culturing medium DMEM with Alamar blue (i.e., a no-cells control) and cells exposed to 10% DMSO were used to correct for background fluorescence and cell death, respectively. […]
(§3) The alamarBlue assay was performed as described in [Burczynski et al. (2000)], [Hamid et al. (2004)], and [Rampersad (2012)]. […] The fluorescence at the emission wavelength of 590 nm was measured with a SpectraMax M5 (Molecular Devices, San Jose, CA, United States) and expressed as relative fluorescence units. […]
(§4) The cell viability (%) was calculated by using the formula: […]
Background: The colour change of resazurin is a common sign of viable cells or microbes.

Series [2] deals with Human Embryonic Kidney (HEK293) cells. The series can be described thus: alamarBlue cytotoxicity assay, HEK293 cells. The class given is cell-based. As to conditions: HEK293, 200 μM (∼200 μg/ml), exposure for 72 h. As to the method: as §1, §2, §3, §4
Series [3] can be described thus: alamarBlue cytotoxicity assay, Caco-2 cells. The class given is cell-based, human. The note with it: human, Caco-2, 72 h exposure, alamarBlue; read-out: IC50 (cytotoxic level). On the procedure: (§5) To perform cytotoxicity assay, two batches of concentrated lichenysin were prepared from biomass grown on LB agar plates as described in section “Extraction of Lichenysin From Biomass Collected From Surface Growth on LB Agar and Skimmed Milk Agar.” Instead of using 150 mg biomass, lichenysin was extracted from 6.5 g of biomass from strain B4123, and dissolved in a final volume of 300 μl methanol. A small aliquot of 1 μl was taken to determine the concentration of the concentrated lichenysin extract via Reversed-Phase High-Performance Liquid Chromatography – Electro Spray Ionization Mass Spectrometry (RP-HPLC-ESI-MS). The remaining concentrated extract was entirely evaporated under a flow of nitrogen at 40°C in a heating block. The dry residue was resuspended in either 99% Dimethyl Sulfoxide (DMSO) or Dulbecco’s Modified Eagle Medium (DMEM; Gibco, Thermo Fischer Scientific, Bleiswijk, Netherlands) without phenol red serum or antibiotics. Surfactin (purchased from Merck) was also used in cytotoxicity assays by dissolving 10 mg in 1 ml of distilled water (10 mM) (with an adjusted pH of ∼11.7 to obtain full solubility). Both lichenysin and surfactin were diluted to the desired concentration in DMEM medium without phenol red, serum and antibiotics before adding to the cells.
(§6) Human Embryonic Kidney (HEK293) cells were obtained from Invivogen (San Diego, CA, United States), and Caco-2 human intestinal epithelial cells (ATCC HTB-37) were purchased from the American Type Culture Collection (Manassas, VA, United States). Both cell lines were maintained in DMEM medium containing 10 % Fetal Bovine Serum (FBS) (Thermo Fischer Scientific) and 1 % penicillin/streptomycin (Merck) to attain a confluent growth. The grown HEK293 and Caco-2 cells were seeded and suspended at a final concentration of 2 × 10^5 cells/ml (in 200 μl) in 96 wells-plates (Greiner). […]
as §2
(§7) The alamarBlue assay was performed as described in [Burczynski et al. (2000)], [Hamid et al. (2004)], and [Rampersad (2012)]. […] The fluorescence at the emission wavelength of 590 nm was measured with a SpectraMax M5 (Molecular Devices, San Jose, CA, United States) and expressed as relative fluorescence units. The average fluorescence of the no-cells control was used to normalize all recorded fluorescence emission values.
as §4

Series [4] deals with Caco-2 human intestinal epithelial cells. The series can be described thus: alamarBlue cytotoxicity assay, Caco-2 cells. The note with it: Homo sapiens, Caco-2, 72 h. It counts as cell-based. As to the method:
as §5, §6, §2, §7, §4

Series [5] is described as follows: alamarBlue cytotoxicity assay, pig ileum organoids. It counts as cell-based. The note with it: 72 h exposure, alamarBlue, read-out: IC50 (cytotoxic level). On the procedure: as §1, §2, §3, §4
Another series concerns pig ileum organoids. The series can be described thus: alamarBlue cytotoxicity assay, pig ileum organoids. It counts as cell-based. As to conditions: 200 μM, 72 h. As to the method: as §1, §2, §3, §4

In the case of `CC(C)CCCCCCCCC[C@@H]1CC(=O)N[C@@H](CCC(=O)O)C(=O)N[C@@H](CC(C)C)C(=O)N[C@H](CC(C)C)C(=O)N[C@@H](C(C)C)C(=O)N[C@@H](CC(=O)O)C(=O)N[C@H](CC(C)C)C(=O)N[C@@H](CC(C)C)C(=O)O1` [Surfactin, cyclo-[Glu^1-Leu^2-Leu^3-Val^4-Asp^5-Leu^6-Leu^7 − − β-OH fatty acid]] (EL[dL]VD[dL]L; linker N-C via X2), the IC50 in series [1] is over 200 µg/mL; in series [3], 23.5 µg/mL (≈ 22.7 µM); in series [4] (Caco-2, 72 h incubation, read-out: concentration needed to reduce cell viability by 50% (IC50)) it was 23.4 µg/mL; in series [4] (in log10 scale, read-out: IC50 in log10 scale (converted)) it was 1.37 µM; in series [4] (read-out: IC50), 23.5 µM; in series [5] it was over 200 µg/mL. Moreover, the “toxicity at the highest tested concentration” value in series [2] is listed as “not toxic”; with pig ileum organoids, “did not show toxicity; also recorded: no toxicity was seen”.

The record behind these values is publication PMC8859269, “Lichenysin Production by Bacillus licheniformis Food Isolates and Toxicity to Human Cells” (Frontiers in Microbiology, 2022).
